{"source": "patent US12387828B2", "about": "“System and method for ranking options for medical treatments” (PRXCISION LLC, priority 2015, dated 2025)", "origin": "cited, not measured here", "key": {"[1]": {"settings": "model value, multiplied by (WT/70)"}}}
{"molecule": "C[C@@H](O)[C@H]1C(=O)N2C(C(=O)O)=C(S[C@@H]3CN[C@H](C(=O)N(C)C)C3)[C@H](C)[C@H]12", "note": "[meropenem]", "values": [{"measurement": "CLt (total clearance)", "setting": "equation in CLcr (mL/min) and WT (kg)", "result": "(10.2+2.08×CLcr)×(WT/70)×0.06"}, {"measurement": "CLd (distributional clearance)", "setting": "[1]", "result": 18.6, "unit": "L/h"}, {"measurement": "Vc (volume of the central compartment)", "setting": "[1]", "result": 10.8, "unit": "L"}, {"measurement": "Vp (peripheral compartment volume)", "setting": "[1]", "result": 12.6, "unit": "L"}]}
